The target in test [1] is T1, 5-hydroxytryptamine receptor 3A (Mus musculus, UniProt P23979).
T1 sequence (P23979 whole entry): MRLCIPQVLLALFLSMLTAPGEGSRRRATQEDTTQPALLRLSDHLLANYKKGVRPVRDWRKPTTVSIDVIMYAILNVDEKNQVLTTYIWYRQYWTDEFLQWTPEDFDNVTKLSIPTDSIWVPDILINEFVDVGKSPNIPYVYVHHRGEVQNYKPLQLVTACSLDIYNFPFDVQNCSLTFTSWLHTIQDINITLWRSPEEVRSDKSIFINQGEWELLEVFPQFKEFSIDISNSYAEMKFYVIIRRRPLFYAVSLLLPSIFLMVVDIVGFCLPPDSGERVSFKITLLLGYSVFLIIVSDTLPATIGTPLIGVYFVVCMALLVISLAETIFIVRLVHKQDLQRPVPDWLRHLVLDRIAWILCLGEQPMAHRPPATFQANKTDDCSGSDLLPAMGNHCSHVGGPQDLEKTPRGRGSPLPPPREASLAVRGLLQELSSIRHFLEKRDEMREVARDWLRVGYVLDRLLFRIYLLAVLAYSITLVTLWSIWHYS

The target of test [2] is 5-hydroxytryptamine receptor 1E (Homo sapiens, UniProt P28566).
Sequence of 5-hydroxytryptamine receptor 1E (P28566 whole entry): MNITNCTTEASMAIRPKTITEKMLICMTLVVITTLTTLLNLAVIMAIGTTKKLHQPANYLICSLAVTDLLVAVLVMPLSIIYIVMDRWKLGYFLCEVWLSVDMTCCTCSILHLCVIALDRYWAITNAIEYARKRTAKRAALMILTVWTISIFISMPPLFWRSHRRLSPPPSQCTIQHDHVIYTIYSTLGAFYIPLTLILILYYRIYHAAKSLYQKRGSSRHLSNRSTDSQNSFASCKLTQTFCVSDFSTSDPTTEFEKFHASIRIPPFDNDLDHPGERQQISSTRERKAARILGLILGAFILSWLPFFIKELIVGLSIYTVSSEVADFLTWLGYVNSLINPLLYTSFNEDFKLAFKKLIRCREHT
Test [3] deals with 5-hydroxytryptamine receptor 1B (Rattus norvegicus, UniProt P28564).
Sequence of 5-hydroxytryptamine receptor 1B (Rattus norvegicus, UniProt P28564) (P28564 whole entry): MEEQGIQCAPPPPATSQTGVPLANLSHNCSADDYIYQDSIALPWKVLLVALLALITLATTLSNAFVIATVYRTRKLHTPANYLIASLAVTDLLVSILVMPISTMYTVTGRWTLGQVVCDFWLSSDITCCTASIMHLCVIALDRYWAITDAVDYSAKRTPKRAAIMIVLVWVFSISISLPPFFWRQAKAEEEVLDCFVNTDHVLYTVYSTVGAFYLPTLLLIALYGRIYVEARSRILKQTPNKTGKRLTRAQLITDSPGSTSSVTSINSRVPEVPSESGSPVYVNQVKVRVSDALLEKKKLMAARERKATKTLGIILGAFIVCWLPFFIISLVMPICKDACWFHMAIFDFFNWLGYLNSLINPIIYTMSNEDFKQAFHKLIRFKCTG
The target in test [4] is 5-hydroxytryptamine receptor 2B (Mus musculus, UniProt Q02152).
Sequence of 5-hydroxytryptamine receptor 2B (Mus musculus, UniProt Q02152) (Q02152 whole entry): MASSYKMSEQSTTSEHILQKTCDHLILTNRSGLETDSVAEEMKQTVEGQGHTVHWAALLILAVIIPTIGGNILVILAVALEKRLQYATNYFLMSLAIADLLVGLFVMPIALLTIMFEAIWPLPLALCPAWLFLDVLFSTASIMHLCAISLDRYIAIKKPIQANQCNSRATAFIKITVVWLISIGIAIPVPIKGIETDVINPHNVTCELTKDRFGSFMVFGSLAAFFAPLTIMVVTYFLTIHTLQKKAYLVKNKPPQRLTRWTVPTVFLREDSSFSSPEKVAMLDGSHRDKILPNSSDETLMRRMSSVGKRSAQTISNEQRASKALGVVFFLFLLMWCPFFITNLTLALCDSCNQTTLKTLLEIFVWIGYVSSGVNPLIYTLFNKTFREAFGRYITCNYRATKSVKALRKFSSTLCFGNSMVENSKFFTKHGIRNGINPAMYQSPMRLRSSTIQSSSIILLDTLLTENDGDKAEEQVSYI
Test [5] deals with 5-hydroxytryptamine receptor 7 (Mus musculus, UniProt P32304).
Sequence of 5-hydroxytryptamine receptor 7 (P32304 whole entry): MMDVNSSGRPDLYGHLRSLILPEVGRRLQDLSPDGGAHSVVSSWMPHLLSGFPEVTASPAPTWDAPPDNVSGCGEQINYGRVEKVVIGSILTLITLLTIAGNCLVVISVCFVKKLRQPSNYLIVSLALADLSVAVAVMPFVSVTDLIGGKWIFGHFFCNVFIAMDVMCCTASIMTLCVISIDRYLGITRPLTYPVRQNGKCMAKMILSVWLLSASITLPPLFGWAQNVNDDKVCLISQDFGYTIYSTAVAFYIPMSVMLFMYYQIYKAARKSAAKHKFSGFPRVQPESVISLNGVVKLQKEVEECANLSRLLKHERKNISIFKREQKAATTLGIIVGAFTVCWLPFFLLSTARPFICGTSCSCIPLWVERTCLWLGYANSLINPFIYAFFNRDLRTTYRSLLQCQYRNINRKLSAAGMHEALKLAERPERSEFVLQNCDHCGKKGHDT
The target of test [6] is T2, 5-hydroxytryptamine receptor 1F (Mus musculus, UniProt Q02284).
T2 sequence (Q02284 whole entry): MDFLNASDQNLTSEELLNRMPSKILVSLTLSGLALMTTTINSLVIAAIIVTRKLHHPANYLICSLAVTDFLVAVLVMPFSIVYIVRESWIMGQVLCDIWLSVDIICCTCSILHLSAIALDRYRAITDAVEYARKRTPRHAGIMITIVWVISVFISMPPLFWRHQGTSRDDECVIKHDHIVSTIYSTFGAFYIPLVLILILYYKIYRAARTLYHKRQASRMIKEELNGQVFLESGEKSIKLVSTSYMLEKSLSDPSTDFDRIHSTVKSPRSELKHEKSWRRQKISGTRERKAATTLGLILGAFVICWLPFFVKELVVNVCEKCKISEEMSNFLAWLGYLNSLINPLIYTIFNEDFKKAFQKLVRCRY

The target in test [7] is T3, 5-hydroxytryptamine receptor 1F (Rattus norvegicus, UniProt P30940).
T3 sequence (P30940 whole entry): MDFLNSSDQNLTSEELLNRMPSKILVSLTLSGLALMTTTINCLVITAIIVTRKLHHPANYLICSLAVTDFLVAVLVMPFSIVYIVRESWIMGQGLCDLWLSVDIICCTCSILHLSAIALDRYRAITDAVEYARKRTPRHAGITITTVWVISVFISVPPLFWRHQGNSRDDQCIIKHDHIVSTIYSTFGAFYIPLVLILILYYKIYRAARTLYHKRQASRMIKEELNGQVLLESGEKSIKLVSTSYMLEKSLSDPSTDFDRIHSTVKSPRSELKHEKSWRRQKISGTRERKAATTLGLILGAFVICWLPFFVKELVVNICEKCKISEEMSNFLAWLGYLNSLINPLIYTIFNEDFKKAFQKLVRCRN

The target of test [8] is 5-hydroxytryptamine receptor 5A (Mus musculus, UniProt P30966).
Sequence of 5-hydroxytryptamine receptor 5A (Mus musculus, UniProt P30966) (P30966 whole entry): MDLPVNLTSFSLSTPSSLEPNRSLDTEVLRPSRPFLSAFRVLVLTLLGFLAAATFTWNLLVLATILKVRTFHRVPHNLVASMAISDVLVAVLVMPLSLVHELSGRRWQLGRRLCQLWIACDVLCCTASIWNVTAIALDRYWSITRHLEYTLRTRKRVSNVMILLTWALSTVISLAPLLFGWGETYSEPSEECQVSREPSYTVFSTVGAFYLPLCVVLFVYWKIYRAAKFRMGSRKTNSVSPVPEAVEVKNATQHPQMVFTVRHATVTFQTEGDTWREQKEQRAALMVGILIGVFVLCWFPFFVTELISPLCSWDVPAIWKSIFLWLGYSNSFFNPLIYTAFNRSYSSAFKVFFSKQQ
Test [9] concerns the target 5-hydroxytryptamine receptor 5A (Rattus norvegicus, UniProt P35364).
Test [10] addresses 5-hydroxytryptamine receptor 5B (Rattus norvegicus, UniProt P35365).
Test [11] concerns the target T4, 5-hydroxytryptamine receptor 2C (Rattus norvegicus, UniProt P08909).
T4 sequence (P08909 whole entry): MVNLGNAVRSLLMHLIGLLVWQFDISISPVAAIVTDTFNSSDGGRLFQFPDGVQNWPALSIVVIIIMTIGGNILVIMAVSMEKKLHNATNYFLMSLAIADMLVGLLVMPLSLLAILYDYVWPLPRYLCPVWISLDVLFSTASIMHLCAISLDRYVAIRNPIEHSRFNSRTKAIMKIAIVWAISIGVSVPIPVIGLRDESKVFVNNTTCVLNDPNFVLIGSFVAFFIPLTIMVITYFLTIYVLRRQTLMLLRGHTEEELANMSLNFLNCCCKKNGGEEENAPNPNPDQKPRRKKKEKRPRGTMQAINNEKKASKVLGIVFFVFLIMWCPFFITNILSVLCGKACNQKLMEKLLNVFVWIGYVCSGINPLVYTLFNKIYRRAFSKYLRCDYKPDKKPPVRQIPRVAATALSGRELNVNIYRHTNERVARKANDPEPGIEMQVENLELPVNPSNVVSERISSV

For test [12], the target named is T5, 5-hydroxytryptamine receptor 1F (Homo sapiens, UniProt P30939).
T5 sequence (P30939 whole entry): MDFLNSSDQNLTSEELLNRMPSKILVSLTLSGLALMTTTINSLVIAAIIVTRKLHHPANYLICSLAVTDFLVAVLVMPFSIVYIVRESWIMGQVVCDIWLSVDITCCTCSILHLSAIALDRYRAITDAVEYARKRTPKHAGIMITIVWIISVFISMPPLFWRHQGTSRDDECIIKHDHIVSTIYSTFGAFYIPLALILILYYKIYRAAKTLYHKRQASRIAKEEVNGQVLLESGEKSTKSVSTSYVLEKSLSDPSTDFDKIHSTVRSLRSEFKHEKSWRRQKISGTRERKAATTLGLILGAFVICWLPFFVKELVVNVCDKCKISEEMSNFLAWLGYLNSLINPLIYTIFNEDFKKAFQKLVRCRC

For test [13], the target named is 5-hydroxytryptamine receptor 2B (Rattus norvegicus, UniProt P30994).
Sequence of 5-hydroxytryptamine receptor 2B (Rattus norvegicus, UniProt P30994) (P30994 whole entry): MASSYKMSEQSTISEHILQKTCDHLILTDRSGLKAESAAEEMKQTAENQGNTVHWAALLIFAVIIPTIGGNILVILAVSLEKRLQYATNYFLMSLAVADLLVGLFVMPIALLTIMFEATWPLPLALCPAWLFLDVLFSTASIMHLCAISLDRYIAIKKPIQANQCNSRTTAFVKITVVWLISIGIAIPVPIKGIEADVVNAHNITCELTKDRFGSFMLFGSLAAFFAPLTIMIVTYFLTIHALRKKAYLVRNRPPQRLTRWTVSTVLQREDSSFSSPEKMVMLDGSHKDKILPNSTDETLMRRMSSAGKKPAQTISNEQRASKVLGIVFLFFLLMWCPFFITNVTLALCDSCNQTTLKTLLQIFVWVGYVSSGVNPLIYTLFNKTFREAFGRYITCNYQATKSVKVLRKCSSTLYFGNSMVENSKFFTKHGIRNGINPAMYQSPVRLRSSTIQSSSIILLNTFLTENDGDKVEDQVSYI
The target of test [14] is 5-hydroxytryptamine receptor 4 (Cavia porcellus, UniProt O70528).
Sequence of 5-hydroxytryptamine receptor 4 (O70528 whole entry): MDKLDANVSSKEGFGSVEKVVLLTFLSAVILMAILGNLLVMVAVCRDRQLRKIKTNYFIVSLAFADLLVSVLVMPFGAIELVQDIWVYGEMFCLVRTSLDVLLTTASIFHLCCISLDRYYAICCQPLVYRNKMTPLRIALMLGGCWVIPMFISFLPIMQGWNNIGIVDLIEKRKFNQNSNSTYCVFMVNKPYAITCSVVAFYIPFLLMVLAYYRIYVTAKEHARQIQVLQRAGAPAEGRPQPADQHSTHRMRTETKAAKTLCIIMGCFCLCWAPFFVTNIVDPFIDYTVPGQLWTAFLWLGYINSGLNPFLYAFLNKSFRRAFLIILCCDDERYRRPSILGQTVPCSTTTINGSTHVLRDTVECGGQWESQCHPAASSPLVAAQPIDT
For test [15], the target named is 5-hydroxytryptamine receptor 1D (Canis lupus familiaris, UniProt P11614).
Sequence of 5-hydroxytryptamine receptor 1D (Canis lupus familiaris, UniProt P11614) (P11614 whole entry): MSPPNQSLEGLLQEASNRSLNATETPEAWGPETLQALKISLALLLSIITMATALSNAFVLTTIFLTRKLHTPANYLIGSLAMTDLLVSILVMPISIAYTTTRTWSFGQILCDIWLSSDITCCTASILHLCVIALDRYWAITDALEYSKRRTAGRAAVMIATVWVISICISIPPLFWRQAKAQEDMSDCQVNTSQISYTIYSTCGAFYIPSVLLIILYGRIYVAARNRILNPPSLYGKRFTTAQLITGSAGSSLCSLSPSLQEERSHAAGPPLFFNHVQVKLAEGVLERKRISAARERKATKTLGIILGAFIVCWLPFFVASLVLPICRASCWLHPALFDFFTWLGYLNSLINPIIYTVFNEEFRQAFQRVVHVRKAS
Test [16] has as its target 5-hydroxytryptamine receptor 1D (Rattus norvegicus, UniProt P28565).
For test [17], the target named is 5-hydroxytryptamine receptor 2A (Rattus norvegicus, UniProt P14842).
For test [18], the target named is 5-hydroxytryptamine receptor 1B (Mus musculus, UniProt P28334).
Sequence of 5-hydroxytryptamine receptor 1B (Mus musculus, UniProt P28334) (P28334 whole entry): as the sequence (P28564 whole entry) above, with T15A, A23T, D33G, D152E, V192M, V270A, E272D, T385A counted along it

Where “and” joins values, the source holds several entries; their conditions need not be identical. Equal values may be shown once.

Sequence of 5-hydroxytryptamine receptor 5A (Rattus norvegicus, UniProt P35364) (P35364 whole entry): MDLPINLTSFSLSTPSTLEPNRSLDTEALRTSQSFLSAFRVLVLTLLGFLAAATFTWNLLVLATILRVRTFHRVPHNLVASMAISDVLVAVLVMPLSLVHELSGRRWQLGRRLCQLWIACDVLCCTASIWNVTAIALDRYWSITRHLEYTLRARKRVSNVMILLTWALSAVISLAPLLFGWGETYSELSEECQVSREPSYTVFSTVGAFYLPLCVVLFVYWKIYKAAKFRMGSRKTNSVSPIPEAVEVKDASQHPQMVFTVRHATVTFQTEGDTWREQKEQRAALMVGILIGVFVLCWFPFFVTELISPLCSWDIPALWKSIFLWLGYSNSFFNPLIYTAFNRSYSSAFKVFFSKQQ
Sequence of 5-hydroxytryptamine receptor 5B (P35365 whole entry): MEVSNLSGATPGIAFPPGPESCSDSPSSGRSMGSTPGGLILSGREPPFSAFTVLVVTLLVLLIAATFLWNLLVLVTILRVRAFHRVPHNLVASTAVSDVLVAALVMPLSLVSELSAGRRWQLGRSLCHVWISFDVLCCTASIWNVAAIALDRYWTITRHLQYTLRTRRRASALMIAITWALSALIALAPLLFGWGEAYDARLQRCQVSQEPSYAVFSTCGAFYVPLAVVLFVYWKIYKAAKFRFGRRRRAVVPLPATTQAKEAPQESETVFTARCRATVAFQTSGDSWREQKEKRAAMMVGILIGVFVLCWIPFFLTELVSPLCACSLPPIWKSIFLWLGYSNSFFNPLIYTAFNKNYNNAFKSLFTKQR
Sequence of 5-hydroxytryptamine receptor 1D (Rattus norvegicus, UniProt P28565) (P28565 whole entry): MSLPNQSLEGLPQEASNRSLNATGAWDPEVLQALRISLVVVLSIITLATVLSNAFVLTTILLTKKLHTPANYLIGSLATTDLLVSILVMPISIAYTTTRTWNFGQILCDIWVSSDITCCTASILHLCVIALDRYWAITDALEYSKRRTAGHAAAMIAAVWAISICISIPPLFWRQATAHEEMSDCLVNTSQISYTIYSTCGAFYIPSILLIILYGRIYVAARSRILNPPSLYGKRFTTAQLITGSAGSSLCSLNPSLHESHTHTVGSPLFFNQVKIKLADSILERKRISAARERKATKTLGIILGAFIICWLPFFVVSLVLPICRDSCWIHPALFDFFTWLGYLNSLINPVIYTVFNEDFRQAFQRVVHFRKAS

With `CN1C2CCC1CC(OC(=O)c1c[nH]c3ccccc13)C2` (stereo not drawn), the Ki in test [1] stood at 1.99 nM.
For `CC[C@@H](CO)NC(=O)[C@@H]1C=C2c3cccc4c3c(cn4C)C[C@H]2N(C)C1`, the Ki in test [2] was 324 nM and 219 nM; in [1], above 10000 nM; in test [3], 1820 nM and 437 nM; in [4] it was 12.6 nM; in [5], 12.6 nM; in test [6], 6.3 nM. For the same compound, the Ki in test [7] was determined as 13.5 nM; in test [8] it was 79.4 nM; in test [9], 195 nM; in [10], 1000 nM.
In the case of `c1ccc2nc(N3CCNCC3)ccc2c1` [2-Piperazin-1-yl-quinoline (Quipazine)], the Ki was determined as 257 nM in test [11] and 6610 nM in test [4].
For `O=C(c1ccc(F)cc1)C1CCN(CCn2c(=O)[nH]c3ccccc3c2=O)CC1` [3-(2-{4-[(4-fluorophenyl)carbonyl]piperidin-1-yl}ethyl)-1,2,3,4-tetrahydroquinazoline-2,4-dione], the Ki was 47.9 nM and 20.9 nM in [11]; 204 nM in test [4]; 1.25 nM in test [12]; 3550 nM in test [13].
Turning to `COc1cc(N)c(Cl)cc1C(=O)N[C@H]1CN2CCC1CC2` [4-Amino-N-(R)-1-aza-bicyclo[2.2.2]oct-3-yl-5-chloro-2-methoxy-benzamide], the inhibitory constant (Ki) in test [14] was 251 nM and 200 nM.
As for `CN1C[C@H](C(=O)N[C@]2(C)O[C@@]3(O)[C@@H]4CCCN4C(=O)[C@H](Cc4ccccc4)N3C2=O)C=C2c3cccc4[nH]cc(c34)C[C@H]21` [12'-hydroxy-2'-methyl-5'alpha-(phenylmethyl)ergotaman-3',6',18-trione], the Ki in test [2] was 575 nM and 537 nM; in [3] it was 0.03 nM; in [5] it was 50.1 nM; in test [15], 1.94 nM; in [16], 0.07 nM; in test [6] it was 50.1 nM. In addition, the Ki in [7] amounted to 52.5 nM; in test [8] it was 6.3 nM; in test [10] it was 15.8 nM.
For the compound `CC(C)n1c(=O)n(C(=O)NC2CC3CCC(C2)N3C)c2ccccc21` (stereo not drawn) [BIMU 8], the Ki in test [14] was 25.1 nM and 12.6 nM.
`CN(C)CCCSc1ccccc1NC(=O)/C=C/c1ccccc1` [CINANSERIN]: in test [17], the inhibition constant Ki is 6.02 nM. That is a single-digit nanomolar value.
The compound `Clc1cncc(N2CCNCC2)n1` [L-630,571] came in with a Ki in test [11] of 339 nM.
Regarding `CN1C2CCC1CC(OC(=O)c1cc(Cl)cc(Cl)c1)C2` (stereo not drawn) [MDL 72222], in test [1], the affinity corresponds to a Ki of 87.1 nM.
With `COc1cc2c3cc1Oc1cc(ccc1O)C[C@@H]1c4c(cc(OC)c(O)c4Oc4ccc(cc4)C[C@@H]3N(C)CC2)CC[N+]1(C)C` [Tubocurarine,d], the inhibition constant Ki in test [1] came to 8.7 nM.
As to `NCCc1c[nH]c2ccc(O)cc12` [[3H]-5-HT], the inhibitory constant (Ki) in test [18] amounted to 39.8 nM; in [5], 5.01 nM; in test [15], 15.8 nM; in test [6] it was 126 nM; in test [7] it was 67.6 nM; in test [9], 240 nM.
Turning to `NCCc1c[nH]c2ccc(C(N)=O)cc12` [[3H]-5-carboxamidotryptamine], the Ki in test [2] was 7080 nM and 3310 nM; in test [18], 10 nM; in test [5] it was 1 nM; in test [16] it was 0.37 nM; in [6], 3160 nM; in test [7] it was 2450 nM. The Ki was 151 nM in [13]; above 10000 nM in [14]; 15.8 nM and 12.6 nM in test [8]; 12.6 nM in test [9].

A word on the Ki: it is the dissociation constant of the complex between target and ligand, obtained from inhibition or displacement.

These data come from BindingDB's records for doi:10.1016/0028-3908(94)90059-0 (University of Alberta, 1994).
